Results taken from ChEMBL document CHEMBL3885881, “DrugMatrix”.

Columns and labels:
Rattus norvegicus [1] = species: Rattus norvegicus; experiment: DrugMatrix - Regimen: Daily Repeat; assay type: toxicity, organism-based, Sprague-Dawley; parameters: regimen Daily Repeat, gender Male, age 6-8 weeks; conditions: in vivo, po, 75 mg/kg, route oral GAVAGE, dose level High, vehicle .5 % CMC
Rattus norvegicus [2] = species: Rattus norvegicus; assay type: toxicity, organism-based, Sprague-Dawley; conditions: in vivo, po, 75 mg/kg, 24 h, route oral GAVAGE, dose level High, time 1 day, vehicle .5 % CMC
Description: DrugMatrix - Regimen: Single

[3] = […], tissue Plasma, time 14 day

**Q.** What does the source list for COc1ccc(C2CNC(=O)C2)cc1OC1CCCC1 (centres undefined) [ROLIPRAM]?
**A.** URIC ACID (Rattus norvegicus [1]; 120 h, tissue Plasma, time 5 day): 1.3 mg/dL; ABSOLUTE BASOPHIL (Rattus norvegicus [1]; […], tissue Blood, time 14 day): 0 CELLS/uL; ABSOLUTE EOSINOPHIL (Rattus norvegicus [1]; […], tissue Blood, time 14 day): 252.2 CELLS/uL; ABSOLUTE LYMPHOCYTE (Rattus norvegicus [1]; […], tissue Blood, time 14 day): 9667.6 CELLS/uL; ABSOLUTE MONOCYTE (Rattus norvegicus [1]; […], tissue Blood, time 14 day): 605.6 CELLS/uL; ABSOLUTE SEGMENTED NEUTROPHIL (Rattus norvegicus [1]; […], tissue Blood, time 14 day): 4994.6 CELLS/uL; BASOPHIL (Rattus norvegicus [1]; […], tissue Blood, time 14 day): 0%; EOSINOPHIL (Rattus norvegicus [1]; […], tissue Blood, time 14 day): 1.6%; ERYTHROCYTE COUNT (Rattus norvegicus [1]; […], tissue Blood, time 14 day): 6.09 x10E6/uL; HEMATOCRIT (Rattus norvegicus [1]; […], tissue Blood, time 14 day): 35.84%; HEMOGLOBIN (Rattus norvegicus [1]; […], tissue Blood, time 14 day): 13.22 G/DL; LEUKOCYTE COUNT (Rattus norvegicus [1]; […], tissue Blood, time 14 day): 15.52 x10E3/uL; LYMPHOCYTE (Rattus norvegicus [1]; […], tissue Blood, time 14 day): 69.8%; MEAN CORPUSCULAR HEMOGLOBIN (Rattus norvegicus [1]; […], tissue Blood, time 14 day): 21.78 pg; MEAN CORPUSCULAR HEMOGLOBIN CONCENTRATION (Rattus norvegicus [1]; […], tissue Blood, time 14 day): 36.88 G/DL; MEAN CORPUSCULAR VOLUME (Rattus norvegicus [1]; […], tissue Blood, time 14 day): 59 fL; MONOCYTE (Rattus norvegicus [1]; […], tissue Blood, time 14 day): 3.4%; NEUTROPHIL (Rattus norvegicus [1]; […], tissue Blood, time 14 day): 25.2%; NUCLEATED RED BLOOD CELLS (Rattus norvegicus [1]; […], tissue Blood, time 14 day): 0 /100WBC; PLATELET COUNT (Rattus norvegicus [1]; […], tissue Blood, time 14 day): 1123.6 x10E3/uL; ALANINE AMINOTRANSFERASE (Rattus norvegicus [1]; [3]): 56 u/L; ALBUMIN (Rattus norvegicus [1]; [3]): 3.84 G/DL; ALKALINE PHOSPHATASE (Rattus norvegicus [1]; [3]): 286.6 u/L; ASPARTATE AMINOTRANSFERASE (Rattus norvegicus [1]; [3]): 76.6 u/L; BLOOD UREA NITROGEN (Rattus norvegicus [1]; [3]): 15.4 mg/dL; CARBON DIOXIDE (Rattus norvegicus [1]; [3]): 31.8 mmol/L; CHLORIDE (Rattus norvegicus [1]; [3]): 104 MEQ/L; CHOLESTEROL (Rattus norvegicus [1]; [3]): 55.8 mg/dL; CREATININE (Rattus norvegicus [1]; [3]): 0.19 mg/dL; GLUCOSE (Rattus norvegicus [1]; [3]): 131.8 mg/dL; LACTATE DEHYDROGENASE (Rattus norvegicus [1]; [3]): 80.4 u/L; LIPASE (Rattus norvegicus [1]; [3]): 9 u/L; PHOSPHORUS (Rattus norvegicus [1]; [3]): 9.08 mg/dL; POTASSIUM (Rattus norvegicus [1]; [3]): 5.55 MEQ/L; SODIUM (Rattus norvegicus [1]; [3]): 149.03 MEQ/L; TOTAL BILIRUBIN (Rattus norvegicus [1]; [3]): 0.16 mg/dL; TOTAL PROTEIN (Rattus norvegicus [1]; [3]): 5.98 G/DL; URIC ACID (Rattus norvegicus [1]; [3]): 0.64 mg/dL; ABSOLUTE EOSINOPHIL (Rattus norvegicus [2]; tissue Blood): 109.33 CELLS/uL; ABSOLUTE LYMPHOCYTE (Rattus norvegicus [2]; tissue Blood): 7018.33 CELLS/uL; ABSOLUTE MONOCYTE (Rattus norvegicus [2]; tissue Blood): 257 CELLS/uL; ABSOLUTE SEGMENTED NEUTROPHIL (Rattus norvegicus [2]; tissue Blood): 1082 CELLS/uL; BASOPHIL (Rattus norvegicus [2]; tissue Blood): 0%; EOSINOPHIL (Rattus norvegicus [2]; tissue Blood): 1.33%; ERYTHROCYTE COUNT (Rattus norvegicus [2]; tissue Blood): 5.95 x10E6/uL; HEMATOCRIT (Rattus norvegicus [2]; tissue Blood): 37%; HEMOGLOBIN (Rattus norvegicus [2]; tissue Blood): 13.5 G/DL; LEUKOCYTE COUNT (Rattus norvegicus [2]; tissue Blood): 8.47 x10E3/uL; LYMPHOCYTE (Rattus norvegicus [2]; tissue Blood): 83.33%; MEAN CORPUSCULAR HEMOGLOBIN (Rattus norvegicus [2]; tissue Blood): 22.7 pg; MEAN CORPUSCULAR HEMOGLOBIN CONCENTRATION (Rattus norvegicus [2]; tissue Blood): 36.47 G/DL; MEAN CORPUSCULAR VOLUME (Rattus norvegicus [2]; tissue Blood): 62.17 fL; MONOCYTE (Rattus norvegicus [2]; tissue Blood): 3%; NEUTROPHIL (Rattus norvegicus [2]; tissue Blood): 12.33%; NUCLEATED RED BLOOD CELLS (Rattus norvegicus [2]; tissue Blood): 0 /100WBC; PLATELET COUNT (Rattus norvegicus [2]; tissue Blood): 1249.33 x10E3/uL; ALANINE AMINOTRANSFERASE (Rattus norvegicus [2]; tissue Plasma): 29 u/L; ALBUMIN (Rattus norvegicus [2]; tissue Plasma): 4.47 G/DL; ALKALINE PHOSPHATASE (Rattus norvegicus [2]; tissue Plasma): 403.67 u/L; ASPARTATE AMINOTRANSFERASE (Rattus norvegicus [2]; tissue Plasma): 74.67 u/L; BLOOD UREA NITROGEN (Rattus norvegicus [2]; tissue Plasma): 13.33 mg/dL; CARBON DIOXIDE (Rattus norvegicus [2]; tissue Plasma): 34.67 mmol/L; CHLORIDE (Rattus norvegicus [2]; tissue Plasma): 103 MEQ/L; CHOLESTEROL (Rattus norvegicus [2]; tissue Plasma): 69.67 mg/dL; CREATININE (Rattus norvegicus [2]; tissue Plasma): 0.18 mg/dL; GLUCOSE (Rattus norvegicus [2]; tissue Plasma): 144.33 mg/dL; LACTATE DEHYDROGENASE (Rattus norvegicus [2]; tissue Plasma): 95.67 u/L; LIPASE (Rattus norvegicus [2]; tissue Plasma): 8.67 u/L; PHOSPHORUS (Rattus norvegicus [2]; tissue Plasma): 11.1 mg/dL; POTASSIUM (Rattus norvegicus [2]; tissue Plasma): 5.46 MEQ/L; SODIUM (Rattus norvegicus [2]; tissue Plasma): 151.33 MEQ/L; TOTAL BILIRUBIN (Rattus norvegicus [2]; tissue Plasma): 0.1 mg/dL; TOTAL PROTEIN (Rattus norvegicus [2]; tissue Plasma): 6.4 G/DL; URIC ACID (Rattus norvegicus [2]; tissue Plasma): 1.17 mg/dL
